Assay results: patent US20220098257A1, “Methods of Treating Epilepsy via Phosphodiesterase 4 (PDE4) Inhibition” (Path Therapeutics, Inc., priority 2019, published 2022)
Where two headings read alike, the source gives them in different places.

Columns and labels:
[1] = tested on: 6 Hz-induced psychomotor seizures; experiment: 6 Hz psychomotor seizure induction mouse model; type: in vivo
Source text: To examine the acute effect of PDE4 inhibition on seizures, the 6 Hz psychomotor model that represents therapy-resistant limbic seizures was employed (White et al., 1995; Barton et al., 2001). Briefly, compounds were screened for their ability to block psychomotor seizures induced by a low-frequency (6 Hz), long-duration (3 sec) stimulus delivered through corneal electrodes. These seizures are believed to model partial seizures observed in humans. […]

[2] = tested on: Scn1a mutant mice; experiment: Hyperthermia-induced seizures in Scn1a mutant mice; type: in vivo, mouse; details: for block of seizures (partial = seizure temperature changed; full = no seizure elicited): FIG. 15 comparison, pre-treatment with PDE4 inhibitor
Method: As shown in FIG. 13 (panels A and B), an example PDE4 inhibitor (AN2728) protects against hyperthermia-induced seizures in Scn1a mutant mice. In this model, a Scn1a mutant animal's core temperature is raised using an external heat source and consequently, brain temperature is raised and this leads to hyperthermic seizures. These hyperthermic seizures are thought to represent febrile seizures. In the Scn1a mutants, seizures begin around 41° C., whereas in the WT seizures are rarely detected even at temperatures as high as 43° C. […] FIG. 12B is the same data graphed differently.
A partial block in seizures is noted when the temperature required to induce a seizure is statistically different than wildtype and a full block in seizures occurs when no seizure is elicited following pre-treatment with the PDE4 inhibitor.

[3] = tested on: scn1lab mutant zebrafish; type: in vivo; details: for OCR response / bioenergetics relative to WT baseline: 40 μM dose of PDE4 inhibitor
Method: The scn1lab mutant zebrafish employed in this Experimental section are homozygous, loss-of-function mutants. To measure bioenergetics in whole, living zebrafish (further details of which may be found in Ibhazehiebo et al. (2018) Brain 141(3):744-761), zebrafish larvae (5 days post-fertilization, dpf) were seeded into 24-well islet capture microplates (Agilent) and pre-exposed to vehicle or drug for 20 minutes prior to the start of the assay. Oxygen consumption rates (OCR) were measured using the Seahorse Bioanalyzer (Agilent).
In a similar assay to that described above, scn1lab mutants are exposed to a 40 μM dose of a range of PDE4 inhibitors. […]

[4] = tested on: scn1lab mutant zebrafish; experiment: Electrophysiological recording of seizure-like hyperexcitability in the tectum opticum of scn1lab zebrafish; type: in vivo
Method: Briefly, 6 dpf zebrafish (WT and scn1lab mutants) were paralyzed (α-bungarotoxin, 1 mg/ml, Tocris) and embedded in agarose. The dorsal side of the zebrafish was exposed to the agarose gel surface and a glass microelectrode was placed into the tectum opticum of zebrafish and electrophysiological measurements were recorded. […] Care was taken not to disrupt the pipette or move the fish in any manner. Seizure-like activity was defined by high-frequency, large amplitude spikes, as defined elsewhere (Baraban et al, 2013). Both itcal (>1000 ms in duration) and inter-ictal (<300 ms in duration) activity was observed upon zooming in on a section of the EEG trace (data not shown), consistent with epileptiform events.

[5] = tested on: mouse Scn1a mutant brain ex vivo slices; experiment: Extracellular field recordings in mouse Scn1a mutant brain ex vivo slices; details: AN2728, 40 μM; adult Scn1a heterozygous mutant brain slices; n=3
Method: The mouse Scn1a mutants employed in this Experimental section were heterozygous mutants (Scn1a−/− mice die early postnatally). […] In this assay, adult Scn1a mutant brains were rapidly removed and sectioned for electrophysiological assays. Here, extracellular field recordings were conducted to measure baseline electrophysiological activity, prior to the addition of PDE4 inhibitor (AN2728, 40 μM). A decrease in hyperexcitable amplitude and frequency was measured in the presence of AN2728.

[6] = tested on: Dravet syndrome (DS) patients; details: cited from earlier work
[7] = tested on: kcna1 mutant zebrafish; experiment: Bioenergetics in kcna1 mutant zebrafish (model of generalizable epilepsy and SUDEP); type: in vivo
[8] = after treatment with AN2728, n=6-10

## N#Cc1ccc(Oc2ccc3c(c2)COB3O)cc1 [AN2728, 5-(4-cyanophenoxy)-2,3-dihydro-1-hydroxy-2,1-benzoxaborole]
[1]; dosed 30 min prior to the 6 Hz test, highest dose 300 mg/kg
  animals that responded (protected) in 6 Hz test: 1
[1]; treated two hours prior to the 6 Hz test
  animals that responded (protected) in 6 Hz test: three out of four
[2]; AN2728 treatment
  animals that do not ever experience a seizure: 3
  protection against hyperthermia-induced seizures: protected against hyperthermia-induced seizures
[2]; AN2728 treatment, untreated mutants seize around 41° C.
  temperature at which the remaining animals experience a seizure: ~42 °C
[2]
  block of seizures (partial = seizure temperature changed; full = no seizure elicited): partially or fully block seizures
[3]; AN2728 1 nM-100 nM doses, 5 dpf larvae
  OCR response relative to WT: ineffective
[3]; AN2728 1 μM, 5 dpf larvae
  OCR response relative to WT: fully restoring OCR response to WT levels
[3]; AN2728 10 μM, 5 dpf larvae
  OCR response relative to WT: fully restoring OCR response to WT levels
[3]; AN2728 100 μM, 5 dpf larvae
  toxicity (drop of OCR response below mutant levels): toxic
[3]; AN2728 dose series 1 nM-100 μM, 5 dpf larvae, 20 min pre-exposure
  restoration of bioenergetics (OCR): dose-dependent restoration of bioenergetics
[4]; AN2728, 40 μM, 6 dpf scn1lab mutants
  seizure-like activity: blocked this seizure-like activity to baseline levels
[4]; [8]
  peak amplitude: decrease
  seizure frequency: decrease
[5]
  hyperexcitable amplitude: decrease
  hyperexcitable frequency: decrease

## C=C(C)[C@@H]1CCC(C)=C[C@H]1c1c(O)cc(CCCCC)cc1O [CBD, cannabidiol]
[6]
  patients achieving full seizure freedom: < 5%
  patients with reduced seizure frequency: 43%

## COc1ccc([C@]2(C#N)CC[C@@H](C(=O)O)CC2)cc1OC1CCCC1 [Cilomilast, cilomilast]
[3]
  OCR response / bioenergetics relative to WT baseline: restored OCR response to baseline levels

## CCOc1ccc(/C=C2\NCCc3cc(OCC)c(OCC)cc32)cc1OCC [Drotaverine, drotaverine]
[3]
  OCR response / bioenergetics relative to WT baseline: effective in restoring bioenergetics to baseline levels

## Nc1nc(N)nc(-c2cc(Cl)ccc2Cl)n1 [Irsogladine, irsogladine]
[3]
  OCR response / bioenergetics relative to WT baseline: effective in restoring bioenergetics to baseline levels

## O=C(Nc1c(Cl)cncc1Cl)c1ccc(OC(F)F)c(OCC2CC2)c1 [Roflumilast, roflumilast]
[2]
  block of seizures (partial = seizure temperature changed; full = no seizure elicited): partially or fully block seizures
[3]
  OCR response / bioenergetics relative to WT baseline: restored OCR response to baseline levels
[7]
  bioenergetics relative to wild-type baseline: restore bioenergetics in a kcna1 mutant zebrafish back to baseline levels

## COc1ccc(C2CNC(=O)C2)cc1OC1CCCC1 (stereo not drawn) [Rolipram, rolipram]
[2]
  block of seizures (partial = seizure temperature changed; full = no seizure elicited): partially or fully block seizures
[2]; rolipram, 3 mg/kg
  protection against hyperthermia-induced seizures: neuroprotective against hyperthermia-induced seizures
  temperature required to induce a seizure: raising
[2]; rolipram, 3 mg/kg, from mostly 4-5 level without treatment
  severity of the seizure, Racine scale level: 3

## Cn1c(=O)c2[nH]cnc2n(C)c1=O [Theophylline, theophylline]
[3]
  OCR response / bioenergetics relative to WT baseline: effective in restoring bioenergetics to baseline levels
[7]
  bioenergetics relative to wild-type baseline: restore bioenergetics in a kcna1 mutant zebrafish back to baseline levels
